Common to all, as to type: cell-based
For one test, the system named is A. baumannii ATCC 19606. Nature of the test: MIC, A. baumannii ATCC 19606. Particulars: Acinetobacter baumannii, ATCC19606; Table 10; Ab = A. baumannii, strain not stated.
The subject of test [1] is K. pneumoniae ATCC 700603. Nature of the test: MIC, K. pneumoniae ATCC 700603. Particulars: Klebsiella pneumoniae, ATCC700603; Table 10; Kpn = K. pneumoniae.
The test system of a further test is P. aeruginosa ATCC 15692. Kind of test: MIC, P. aeruginosa ATCC 15692. Particulars: for MIC: Pseudomonas aeruginosa, ATCC15692, Table 10, Pa = P. aeruginosa.
Another test concerns S. aureus ATCC 13709. Nature of the test: MIC, S. aureus ATCC 13709. As to conditions: for MIC: Staphylococcus aureus.
The subject of a further test is E. coli ATCC 25922. Nature of the test: MIC, E. coli ATCC 25922. Particulars: for MIC: Escherichia coli.
The next test relates to S. pneumoniae ATCC 51916. Kind of test: MIC, S. pneumoniae ATCC 51916. Particulars: for MIC: Streptococcus pneumoniae, ATCC51916, Table 10, Spn = S. pneumoniae.
Where [2] appears, read: ATCC13709, S. aureus, Alamar Blue read after overnight incubation at 35° C., read-out: MIC Sa.
Where [3] appears, read: ATCC13709, Table 10, Sa = S. aureus, read-out: Sa MIC.
[4] abbreviates: ATCC25922, E. coli, Alamar Blue read after overnight incubation at 35° C., read-out: MIC Ec.
[5] abbreviates: ATCC25922, Table 10, Ec = E. coli, strain not stated, read-out: Ec MIC.
[6] abbreviates: ATCC13709, Table 16, new R4 substituents, read-out: SA MIC.
Setting [7] is: ATCC25922, Table 16, new R4 substituents, EC8 not defined, read-out: EC8 MIC.
Setting [8] is: Table 17, comparative, new species of R2.

≈ marks a conversion by molar mass, not a printed value. Like-named read-outs stand apart in the source and are kept apart here.

By MIC is commonly meant the smallest concentration in the dilution series that meets the test's criterion for growth inhibition. For `CNc1cc(F)cc2c1[nH]c1nc(Oc3ccc(C#N)nc3)nc(N3C[C@H]4C[C@@H]3C[C@H]4N)c12` [Compound 4.434], the MIC was at most 0.5 µg/mL with A. baumannii ATCC 19606; 1 µg/mL (≈ 2.25 µM) in test [1]; 1 µg/mL (≈ 2.25 µM) in the test on P. aeruginosa ATCC 15692; at most 0.5 µg/mL with S. aureus ATCC 13709 (setting [2]); at most 0.5 µg/mL in the test on S. aureus ATCC 13709 (setting [3]); at most 0.5 µg/mL with E. coli ATCC 25922 (setting [4]). The minimum inhibitory concentration (MIC) in the test on E. coli ATCC 25922 (setting [5]) and with S. pneumoniae ATCC 51916 was at most 0.5 µg/mL throughout.

As to `CNc1cc(F)c(C)c2c1[nH]c1nc(Oc3cnc(C)nc3)nc(N3CC4C[C@@H]3C[C@H]4N)c12` [Compound 6.280], the MIC in the test on A. baumannii ATCC 19606 is at most 0.5 µg/mL; in test [1], 2 µg/mL (≈ 4.46 µM); against P. aeruginosa ATCC 15692, 1 µg/mL (≈ 2.23 µM); in the test with S. aureus ATCC 13709 (setting [2]) it was at most 0.5 µg/mL; with S. aureus ATCC 13709 (setting [3]), at most 0.5 µg/mL; in the test on E. coli ATCC 25922 (setting [4]), at most 0.5 µg/mL. Also, the MIC in the test on E. coli ATCC 25922 (setting [5]) and against S. pneumoniae ATCC 51916 was at most 0.5 µg/mL each time.

Take `CNc1cc(F)c(C)c2c1[nH]c1nc(Oc3cnc(C)nc3)nc(N3C[C@H](N)C4(CC4)C3)c12` [Compound 6.290]: the MIC against A. baumannii ATCC 19606 was at most 0.5 µg/mL; in test [1], 2 µg/mL (≈ 4.46 µM); with P. aeruginosa ATCC 15692 it was 2 µg/mL (≈ 4.46 µM); with S. aureus ATCC 13709 (setting [2]) it was at most 0.5 µg/mL; with S. aureus ATCC 13709 (setting [3]), at most 0.5 µg/mL; in the test on E. coli ATCC 25922 (setting [4]), at most 0.5 µg/mL. The MIC in the test with E. coli ATCC 25922 (setting [5]) and in the test on S. pneumoniae ATCC 51916 was at most 0.5 µg/mL each time.

In the test on S. aureus ATCC 13709 (Table 11, compounds wherein L = CH2), `CNc1cc(F)cc2c1[nH]c1nc(Cc3cnc(C)nc3)nc(N3CC4C(N)C4C3)c12` (stereo not drawn) [drawing 1737] had an SA MIC of at most 0.5 µg/mL. Moreover, in the test with E. coli ATCC 25922 (Table 11, L = CH2, EC8 not defined), the EC8 MIC is 0.25 µg/mL.

Regarding `CNc1cc(F)cc2c1[nH]c1nc(Oc3cnc(C)nc3)nc(N3CC(N)C(C(=O)NCC(C)O)C3)c12` (stereo not drawn) [drawing 1822], the MIC in the test on S. aureus ATCC 13709 (setting [6]) is 8 µg/mL (≈ 15.7 µM); in the test with E. coli ATCC 25922 (setting [7]) it was over 16 µg/mL.

Take `CNc1cc(F)cc2c1[nH]c1nc(Oc3cnc(C)nc3)nc(N3CC(N)C(C(=O)NCCN4CCOCC4)C3)c12` (stereo not drawn) [drawing 1823]: the minimum inhibitory concentration (MIC) in the test with S. aureus ATCC 13709 (setting [6]) is 16 µg/mL (≈ 28.3 µM); in the test on E. coli ATCC 25922 (setting [7]), over 16 µg/mL.

For `CNc1cc(F)cc2c1[nH]c1nc(Oc3cnc(C)nc3)nc(N3CC(N)C(C(F)(F)F)C3)c12` (stereo not drawn) [drawing 1824], the figures for the MIC in the test with S. aureus ATCC 13709 (setting [6]) and in the test on E. coli ATCC 25922 (setting [7]) were at most 0.5 µg/mL and over 16 µg/mL, respectively.

Regarding `CNc1cc(F)cc2c1[nH]c1nc(Oc3cnc(C)nc3)nc(N3CC(N)C(C(=O)OC)C3)c12` (stereo not drawn) [drawing 1825], the minimum inhibitory concentration (MIC) with S. aureus ATCC 13709 (setting [6]) was at most 0.5 µg/mL; in the test on E. coli ATCC 25922 (setting [7]), 1 µg/mL (≈ 2.14 µM).

On to `CNc1cc(F)cc2c1[nH]c1nc(Oc3cnc(C)nc3)nc(N3CC(N)C(C(=O)N4CCOCC4)C3)c12` (stereo not drawn) [drawing 1827], for which the minimum inhibitory concentration (MIC) in the test with S. aureus ATCC 13709 (setting [6]) came to 1 µg/mL (≈ 1.92 µM); in the test with E. coli ATCC 25922 (setting [7]), 16 µg/mL (≈ 30.7 µM).

In the case of `CNc1cc(F)cc2c1[nH]c1nc(Oc3cnc4c(C)cnn4c3)nc(N3C[C@H]4C[C@@H]3C[C@H]4N)c12` [drawing 1831], the PA MIC with P. aeruginosa ATCC 15692 (setting [8]) turned out to be 0.5 µg/mL. Besides, the SA MIC in the test with S. aureus ATCC 13709 (setting [8]) is at most 0.016 µg/mL. Moreover, the Spn52 MIC in the test on S. pneumoniae ATCC 51916 (Table 17, comparative, Spn52 not defined) is at most 0.001 µg/mL.

(Values after patent publication US10865216B2, “Tricyclic Gyrase inhibitors” (MERCK SHARP & DOHME CORP., priority 2012, dated 2020).)
